The record followed here is patent US10660877B2 (BRISTOL-MYERS SQUIBB COMPANY, priority 2016, dated 2020).

Like-named read-outs stand apart in the source and are kept apart here.

The target in assay [1] is human TLR7 (Homo sapiens (Human), UniProt Q9NYK1). Description: TLR7 inhibition reporter assay (HEK-Blue cells, SEAP reporter, gardiquimod stimulation). Type of assay: cell-based. In general terms: In a reporter assay the amount or activity of a reporter protein is the signal.
Assay [2] has as its target human TLR8 (Homo sapiens (Human), UniProt Q9NR97). Description: TLR8 inhibition reporter assay (HEK-Blue cells, SEAP reporter, R848 stimulation).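 Note: compounds tested from 0.05 nM to 50 µM, 22 h at 37 °C, SEAP measured with HEK-Blue Detection, inhibition relative to agonist plus DMSO versus a known inhibitor.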
The target of assay [3] is human TLR9 (Homo sapiens (Human), UniProt Q9NR96). Description: TLR9 inhibition reporter assay (HEK-Blue cells, SEAP reporter, ODN2006 stimulation).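 Note: compounds tested over 0.05 nM to 50 µM, 22 h incubation, inhibition taken as SEAP signal drop from agonist plus DMSO wells toward a known inhibitor control.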
Sequence of human TLR9 (Q9NR96 26-1032): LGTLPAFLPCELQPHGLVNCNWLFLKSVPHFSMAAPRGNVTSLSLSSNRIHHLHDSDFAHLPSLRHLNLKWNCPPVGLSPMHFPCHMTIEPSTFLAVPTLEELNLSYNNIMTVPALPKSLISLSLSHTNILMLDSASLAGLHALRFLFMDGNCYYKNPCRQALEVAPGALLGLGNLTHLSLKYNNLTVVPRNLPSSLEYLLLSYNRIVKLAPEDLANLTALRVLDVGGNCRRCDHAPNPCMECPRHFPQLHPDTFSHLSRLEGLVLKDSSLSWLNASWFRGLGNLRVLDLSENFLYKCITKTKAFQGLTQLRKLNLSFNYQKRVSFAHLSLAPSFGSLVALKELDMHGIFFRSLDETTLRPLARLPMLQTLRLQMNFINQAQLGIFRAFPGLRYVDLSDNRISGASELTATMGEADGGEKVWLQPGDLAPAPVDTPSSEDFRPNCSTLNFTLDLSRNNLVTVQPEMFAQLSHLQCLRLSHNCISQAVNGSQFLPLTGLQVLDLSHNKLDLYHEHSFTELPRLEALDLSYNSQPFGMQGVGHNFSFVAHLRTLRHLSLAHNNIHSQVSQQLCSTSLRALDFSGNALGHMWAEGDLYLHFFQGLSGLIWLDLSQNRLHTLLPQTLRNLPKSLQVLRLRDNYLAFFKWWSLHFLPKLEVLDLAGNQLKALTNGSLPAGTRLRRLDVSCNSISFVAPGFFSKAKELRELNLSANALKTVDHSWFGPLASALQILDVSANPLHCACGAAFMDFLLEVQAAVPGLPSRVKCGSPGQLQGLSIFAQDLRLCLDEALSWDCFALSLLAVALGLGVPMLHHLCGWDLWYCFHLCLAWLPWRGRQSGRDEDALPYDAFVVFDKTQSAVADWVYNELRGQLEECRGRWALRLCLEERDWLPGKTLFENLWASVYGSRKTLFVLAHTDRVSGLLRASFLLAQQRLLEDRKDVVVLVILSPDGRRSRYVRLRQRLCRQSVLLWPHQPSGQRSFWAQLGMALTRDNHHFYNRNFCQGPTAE
The mark [4] stands for this setting: HEK-Blue cells overexpressing human TLR7, gardiquimod 7.5 μM.
Where [5] appears, read: read-out: TLR8 IC50, HEK-Blue cells overexpressing human TLR8, R848 15.9 μM.
The mark [6] stands for this setting: read-out: TLR9 IC50, HEK-Blue cells overexpressing human TLR9, ODN2006 5 nM.
The mark [7] stands for this setting: TLR8 IC50, HEK-Blue cells overexpressing human TLR8, R848 15.9 μM.
[8] abbreviates: TLR9 IC50, HEK-Blue cells overexpressing human TLR9, ODN2006 5 nM.

What is called IC50 is the concentration needed to halve the response being measured.

Sequence of human TLR7 (Q9NYK1 27-1049): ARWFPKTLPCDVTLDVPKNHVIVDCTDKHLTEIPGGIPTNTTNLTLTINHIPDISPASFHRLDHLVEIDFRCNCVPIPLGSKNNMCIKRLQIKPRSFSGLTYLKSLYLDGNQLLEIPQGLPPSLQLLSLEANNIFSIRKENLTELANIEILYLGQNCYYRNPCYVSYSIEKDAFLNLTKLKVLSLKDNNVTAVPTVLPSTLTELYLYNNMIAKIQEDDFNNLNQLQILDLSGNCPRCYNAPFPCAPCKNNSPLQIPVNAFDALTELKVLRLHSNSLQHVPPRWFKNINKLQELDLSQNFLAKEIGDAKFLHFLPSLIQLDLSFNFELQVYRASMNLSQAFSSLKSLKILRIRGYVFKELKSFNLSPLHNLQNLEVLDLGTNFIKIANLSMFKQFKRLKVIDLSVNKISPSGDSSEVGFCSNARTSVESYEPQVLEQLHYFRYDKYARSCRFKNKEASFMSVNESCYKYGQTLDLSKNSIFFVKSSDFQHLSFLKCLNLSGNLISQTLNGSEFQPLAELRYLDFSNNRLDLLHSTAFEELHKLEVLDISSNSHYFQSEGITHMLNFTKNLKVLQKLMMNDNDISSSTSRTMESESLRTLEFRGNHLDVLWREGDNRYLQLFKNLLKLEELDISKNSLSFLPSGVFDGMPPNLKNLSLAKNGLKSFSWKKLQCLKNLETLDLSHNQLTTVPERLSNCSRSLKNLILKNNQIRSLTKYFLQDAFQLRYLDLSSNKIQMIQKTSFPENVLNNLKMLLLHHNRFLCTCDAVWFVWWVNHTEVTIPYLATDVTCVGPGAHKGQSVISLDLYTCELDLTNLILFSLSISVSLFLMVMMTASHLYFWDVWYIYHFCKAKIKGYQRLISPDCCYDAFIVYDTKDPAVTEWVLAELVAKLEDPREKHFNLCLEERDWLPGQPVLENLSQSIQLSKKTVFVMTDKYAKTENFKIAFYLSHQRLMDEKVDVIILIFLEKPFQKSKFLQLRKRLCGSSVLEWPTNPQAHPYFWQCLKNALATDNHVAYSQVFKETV
Sequence of human TLR8 (Q9NR97 27-1041): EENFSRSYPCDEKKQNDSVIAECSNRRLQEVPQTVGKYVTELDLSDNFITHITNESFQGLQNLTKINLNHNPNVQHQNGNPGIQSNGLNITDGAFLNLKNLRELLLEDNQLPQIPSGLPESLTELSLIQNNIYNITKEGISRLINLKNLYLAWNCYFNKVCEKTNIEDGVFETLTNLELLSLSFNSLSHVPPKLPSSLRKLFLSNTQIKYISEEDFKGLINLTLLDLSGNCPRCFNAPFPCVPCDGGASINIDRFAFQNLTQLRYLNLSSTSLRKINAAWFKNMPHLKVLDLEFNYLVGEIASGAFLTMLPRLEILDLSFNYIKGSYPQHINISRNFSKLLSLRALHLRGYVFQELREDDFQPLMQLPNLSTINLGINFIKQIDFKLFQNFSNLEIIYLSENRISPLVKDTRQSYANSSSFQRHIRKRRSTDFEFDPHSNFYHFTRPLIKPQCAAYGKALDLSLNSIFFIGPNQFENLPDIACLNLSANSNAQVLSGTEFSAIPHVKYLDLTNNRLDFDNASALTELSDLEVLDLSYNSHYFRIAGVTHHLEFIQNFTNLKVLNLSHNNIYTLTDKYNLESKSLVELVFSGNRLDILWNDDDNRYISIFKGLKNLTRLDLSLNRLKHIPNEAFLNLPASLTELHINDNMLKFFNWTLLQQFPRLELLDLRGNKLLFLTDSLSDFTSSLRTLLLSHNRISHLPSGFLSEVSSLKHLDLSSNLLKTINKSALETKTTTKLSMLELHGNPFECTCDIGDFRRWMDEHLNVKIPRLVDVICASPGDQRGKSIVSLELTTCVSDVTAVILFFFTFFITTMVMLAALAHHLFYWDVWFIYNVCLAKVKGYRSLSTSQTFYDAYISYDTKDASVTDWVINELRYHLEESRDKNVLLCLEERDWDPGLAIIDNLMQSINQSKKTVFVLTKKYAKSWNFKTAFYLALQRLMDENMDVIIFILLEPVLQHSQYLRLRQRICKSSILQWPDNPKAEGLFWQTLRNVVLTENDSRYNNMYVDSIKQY

For `Cc1cc(-c2[nH]c3ccc(C4CCN(C(=O)CNCCC(C)O)CC4)cc3c2C(C)C)cc(C)n1` (stereo not drawn) [Example 369, 1-(4-(2-(2,6-dimethylpyridin-4-yl)-3-isopropyl-1H-indol-5-yl)piperidin-1-yl)-2-((3-hydroxybutyl)amino)ethan-1-one], the figures for the IC50 in assay [1] (setting [4]), in assay [2] (setting [5]) and in assay [3] (setting [6]) were 10.3 nM, 93.8 nM and 1060 nM, respectively.
Regarding `Cc1cc(-c2[nH]c3ccc(C4CCN(C(=O)CC5CCOCC5)CC4)cc3c2C(C)C)cc(C)n1` [Example 106, 1-(4-(2-(2,6-dimethylpyridin-4-yl)-3-isopropyl-1H-indol-5-yl)piperidin-1-yl)-2-(tetrahydro-2H-pyran-4-yl)ethan-1-one], the IC50 was 8.2 nM in assay [1] (setting [4]), 67.4 nM in assay [2] (setting [5]) and 30600 nM in assay [3] (setting [6]).
In the case of `Cc1cc(-c2[nH]c3ccc(C4CCN(C5CCOC6CCCC65)CC4)cc3c2C(C)C)cc(C)n1` (stereo not drawn) [Example 458, 2-(2,6-dimethylpyridin-4-yl)-3-isopropyl-5-(1-(octahydrocyclopenta[b]pyran-4-yl)piperidin-4-yl)-1H-indole], the IC50 in assay [1] (setting [4]) stood at 16.6 nM; in assay [2] (setting [5]), 21.3 nM; in assay [3] (setting [6]), 534 nM.
The like results for `Cc1cc(-c2[nH]c3ccc(C4CCN(C(=O)c5c(C)noc5C)CC4)cc3c2C(C)C)cc(C)n1` [Example 119, (3,5-dimethylisoxazol-4-yl)(4-(2-(2,6-dimethylpyridin-4-yl)-3-isopropyl-1H-indol-5-yl)piperidin-1-yl) methanone] were, in that order, 6.9 nM, 96.1 nM and 5440 nM.
For the compound `Cc1cc(-c2[nH]c3ccc(C4CCN(CC(O)C(F)(F)F)CC4)cc3c2C(C)C)cc(C)n1` (stereo not drawn) [Example 317, 3-(4-(2-(2,6-dimethylpyridin-4-yl)-3-isopropyl-1H-indol-5-yl)piperidin-1-yl)-1,1-trifluoropropan-2-ol], the values for the IC50 in assay [1] (setting [4]), in assay [2] (setting [5]) and in assay [3] (setting [6]) were 13.7 nM, 13.2 nM and 1120 nM, respectively.
Turning to `CCN(CCO)C(=O)CN1CCC(c2ccc3[nH]c(-c4cc(C)nc(C)c4)c(C(C)C)c3c2)CC1` [Example 294, 2-(4-(2-(2,6-dimethylpyridin-4-yl)-3-isopropyl-1H-indol-5-yl)piperidin-1-yl)-N-ethyl-N-(2-hydroxyethyl)acetamide], the IC50 in assay [1] (setting [4]) was 14.1 nM; in assay [2] (setting [5]), 58.3 nM; in assay [3] (setting [6]), 1880 nM.
For the compound `CNCC(=O)N1CCC(c2ccc3[nH]c(-c4cc(C)ncc4C)c(C(C)C)c3c2)CC1` [Example 620, 1-(4-(2-(2,5-dimethylpyridin-4-yl)-3-isopropyl-1H-indol-5-yl)piperidin-1-yl)-2-(methylamino)ethan-1-one], the 50% inhibitory concentration (IC50) is 8.1 nM in assay [1] (setting [4]), 3.5 nM in assay [2] (setting [7]) and 3570 nM in assay [3] (setting [8]).
In the same order, the values of `Cc1cc(-c2[nH]c3ccc(C4CCN(CC(=O)NCC(C)(C)C)CC4)cc3c2C(C)C)cc(C)n1` [Example 219, 2-(4-(2-(2,6-dimethylpyridin-4-yl)-3-isopropyl-1H-indol-5-yl)piperidin-1-yl)-N-neopentylacetamide] are 22.5 nM, 47.7 nM and 2250 nM.
For `CNCCN1CCC(c2ccc3[nH]c(-c4cc(C)nc(C)c4)c(CC(F)F)c3c2)CC1` [Example 541, 2-(4-(3-(2,2-difluoroethyl)-2-(2,6-dimethylpyridin-4-yl)-1H-indol-5-yl)piperidin-1-yl)-N-methylethan-1-amine], the values for the half-maximal inhibitory concentration (IC50) in assay [1] (setting [4]), in assay [2] (setting [5]) and in assay [3] (setting [6]) were 11.5 nM, 22.2 nM and 110 nM, respectively.
Turning to `Cc1cc(-c2[nH]c3ccc(C4CCN(CC5CCCCC5)CC4)cc3c2C(C)C)ccn1` [Example 868, 5-(1-(cyclohexylmethyl)piperidin-4-yl)-3-isopropyl-2-(2-methylpyridin-4-yl)-1H-indole], the IC50 in assay [1] (HEK-Blue cells, gardiquimod 7.5 μM) came out at 53.5 nM; in assay [2] (read-out: TLR8 IC50, HEK-Blue cells, R848 15.9 μM), 33.8 nM; in assay [3] (read-out: TLR9 IC50, HEK-Blue cells, ODN2006 5 nM), 925 nM.
